# Experimental data taken from PMC12292521, “Discovery of a Potent Antimicrobial Peptide Through Rational Design: A New Frontier in Pathogen Control” (Biomolecules, 2025).
# Peptide text beside a SMILES is read from it.
# How the values were obtained:
# S. aureus (MRSA) biofilm = assay: Antibiofilm activity (crystal violet); format: cell-based, Staphylococcus aureus; settings: RKW at ½ and ¼ MIC (25 and 12.5 μM); OD 630 nm vs control; three independent experiments; ANOVA p < 0.01; greatest inhibition at ¼ MIC
# Protocol: Therefore, the minimum inhibitory concentration (MIC) and MBC were evaluated. […] Subsequently, the antibiofilm activity of the peptide was tested according to Festa et al.. Specifically, two different concentrations of peptide were used, corresponding to ½ and ¼ of the estimated MIC value, which guarantee the optimal bacterial growth conditions necessary to allow biofilm production. Biofilm production (%) was calculated based on Optical Density (measured at 630 nm) outputs, compared to the control group.
# To compare the percentages of biofilm production across different samples, a one-way analysis of variance (ANOVA) was conducted using Prism v. 10.0 (GraphPad, Graph-Pad Software, La Jolla, CA, USA). Significant differences between sample pairs were identified with Tukey’s post hoc test (p < 0.05).
# [1] = test system: Staphylococcus epidermidis ATCC 12228; assay: Quantitative suspension test, bactericidal activity, BS EN 1276:2019; format: cell-based; design: key to Bactericidal activity verdict: Active: For bacteria: ACTIVE if log R ≥ 5 according to BS EN 1276:2019; Not active: For bacteria: ACTIVE if log R ≥ 5 according to BS EN 1276:2019; settings: 60 min, 37 °C, BSA 0.3 g/L
# Source text: (§1) The method is based on the suspension test according to BS EN 1276:2019, which specifies a quantitative suspension analysis for the evaluation of the bactericidal activity of chemical disinfectants and antiseptics used in food, industrial, domestic, and institutional areas against a panel of microorganisms under conditions that more closely simulate practical use. Briefly, S. aureus ATCC 6538, P. aeruginosa ATCC 15442, and Staphylococcus epidermidis ATCC 12228 were used as test organisms at a bacterial concentration of 1.0 × 10^8 colony-forming units (CFU) per mL (CFU/mL). In the test, BSA (Bovine Serum Albumin) (0.3 g/L) was used as an interfering substance to mimic clean conditions. […] The reaction mixture was incubated at 37 °C for 60 min before transferring each sample to a tube containing a neutralizer solution consisting of 30 g/L polysorbate 80, 1 g/L sodium thiosulfate, 3 g/L lecithin, 1 g/L tryptone, 8.5 g/L NaCl, 100 mL/L phosphate buffer and water. The negative control (untreated cells) was prepared using PBS instead of biocides. The solutions were then plated onto Tryptone Soy Agar (TSA) and incubated at 37 °C for 48 h to determine the logarithmic CFU/mL reduction, according to the following Equation:(2) log R = log (N0) − log (Na) where R refers to the reduction in viability, N refers to the number of CFU/mL in the test mixture at the beginning of the contact time, and Na refers to the number of CFU/mL in the test mixture at the end of the contact time. […] The test method and the minimum requirements for fungicidal activity of chemical disinfectant and antiseptic products were performed according to BS EN 1650:2019. The fungicidal activity was studied using the vegetative cells of Candida albicans ATCC 10231 and the spores of Aspergillus brasiliensis ATCC 16404 as test organisms. […] The mixture was maintained at 37 °C for a contact time of 60 min. At the end of this contact time, an aliquot was taken, and the fungicidal activity was immediately neutralized with a solution consisting of 30 g/L polysorbate 80, 1 g/L sodium thiosulfate, 3 g/L lecithin, 1 g/L tryptone, 8.5 g/L NaCl, 100 mL/L phosphate buffer and water. The samples were then plated onto malt extract agar (MEA) and incubated at 30 °C for 48 h to determine the numbers of surviving fungi as the logarithmic CFU/mL reduction, calculated according to Equation (2).
# [2] = test system: Staphylococcus aureus ATCC 6538; assay: as above; format: cell-based; design: key to Bactericidal activity verdict: Active: For bacteria: ACTIVE if log R ≥ 5 according to BS EN 1276:2019; Not active: For bacteria: ACTIVE if log R ≥ 5 according to BS EN 1276:2019; settings: 60 min, 37 °C, BSA 0.3 g/L
# Source text: as §1
# [3] = test system: Pseudomonas aeruginosa ATCC 15442; assay: as above; format: cell-based; design: key to Bactericidal activity verdict: Active: For bacteria: ACTIVE if log R ≥ 5 according to BS EN 1276:2019; Not active: For bacteria: ACTIVE if log R ≥ 5 according to BS EN 1276:2019; settings: 60 min, 37 °C, BSA 0.3 g/L
# Source text: as §1
smiles,measurement,setting,value
CC[C@H](C)[C@H](NC(=O)[C@H](Cc1c[nH]c2ccccc12)NC(=O)[C@H](CCCCN)NC(=O)[C@@H](N)CCCNC(=N)N)C(=O)N[C@@H](CC(C)C)C(=O)N[C@@H](CCCCN)C(=O)N[C@@H](Cc1c[nH]c2ccccc12)C(=O)N[C@@H](CC(C)C)C(=O)N[C@@H](CCCNC(=N)N)C(=O)N[C@H](C(=O)N[C@@H](Cc1c[nH]c2ccccc12)C(=O)N[C@@H](CCCCN)C(=O)N[C@@H](CCCCN)C(N)=O)[C@@H](C)O [RKW] (H-RKWILKWLRTWKK-NH2; N-terminus assumed),Biofilm production,S. aureus (MRSA) biofilm,significantly inhibited the biofilm production
same,Bactericidal activity verdict,[1]; RKW 5 µM,Na = 3.70 × 10^2 log Na = 2.57 log R = 4.71 Not active
same,Na (CFU/mL at the end of the contact time),[1]; RKW 5 µM,3.70 × 10^2 CFU/mL
same,Bactericidal activity verdict,[1]; RKW 10 µM,Na = 2.40 × 10^2 log Na = 2.38 log R = 4.90 Not active
same,Na (CFU/mL at the end of the contact time),[1]; RKW 10 µM,2.40 × 10^2 CFU/mL
same,Bactericidal activity verdict,[1]; RKW 20 µM,Na = 1.60 × 10^2 log Na = 2.20 log R = 5.08 Active
same,Na (CFU/mL at the end of the contact time),[1]; RKW 20 µM,1.60 × 10^2 CFU/mL
same,Bactericidal activity verdict,[1]; RKW 50 µM,Na = 1.60 × 10^2 log Na = 2.20 log R = 5.08 Active
same,Na (CFU/mL at the end of the contact time),[1]; RKW 50 µM,1.60 × 10^2 CFU/mL
same,Bactericidal activity verdict,[1]; RKW 100 µM,Na = 1.60 × 10^2 log Na = 2.20 log R = 5.08 Active
same,Na (CFU/mL at the end of the contact time),[1]; RKW 100 µM,1.60 × 10^2 CFU/mL
same,Bactericidal activity verdict,[2]; RKW 5 µM,Na = 1.11 × 10^5 log Na = 5.10 log R = 2.25 Not active
same,Na (CFU/mL at the end of the contact time),[2]; RKW 5 µM,1.11 × 10^5 CFU/mL
same,Bactericidal activity verdict,[2]; RKW 10 µM,Na = 5.10 × 10^4 log Na = 4.71 log R = 2.59 Not active
same,Na (CFU/mL at the end of the contact time),[2]; RKW 10 µM,5.10 × 10^4 CFU/mL
same,Bactericidal activity verdict,[2]; RKW 20 µM,Na= 1.47 × 10^4 log Na = 4.20 log R = 3.13 Not active
same,Na (CFU/mL at the end of the contact time),[2]; RKW 20 µM,1.47 × 10^4 CFU/mL
same,Na (CFU/mL at the end of the contact time),[2]; RKW 50 µM,1.47 × 10^4 CFU/mL
same,Na (CFU/mL at the end of the contact time),[2]; RKW 100 µM,1.47 × 10^4 CFU/mL
same,Bactericidal activity verdict,[3]; RKW 5 µM,Active
same,Na (CFU/mL at the end of the contact time),[3]; RKW 5 µM,< 1.40 × 10^2 CFU/mL
same,Bactericidal activity verdict,[3]; RKW 10 µM,Active
same,Na (CFU/mL at the end of the contact time),[3]; RKW 10 µM,< 1.40 × 10^2 CFU/mL
same,Bactericidal activity verdict,[3]; RKW 20 µM,Active
same,Na (CFU/mL at the end of the contact time),[3]; RKW 20 µM,< 1.40 × 10^2 CFU/mL
same,Bactericidal activity verdict,[3]; RKW 50 µM,Active
same,Na (CFU/mL at the end of the contact time),[3]; RKW 50 µM,< 1.40 × 10^2 CFU/mL
same,Bactericidal activity verdict,[3]; RKW 100 µM,Active
same,Na (CFU/mL at the end of the contact time),[3]; RKW 100 µM,< 1.40 × 10^2 CFU/mL
